Columns and labels:
Format in all cases: in vivo, human (obese patients, average BMI=33)
PD1 = assay: Slimming study: blood level of anti-inflammatory marker PD1; conditions: day 60; control group reduced by 36%
Method: (§1) A study under medical supervision was conducted among obese patients (average BMI=33). The subjects were separated into two groups: • a “control” group consuming food compositions similar to those of the invention but without DHA; and • a “study” group consuming food compositions according to the invention comprising DHA.
At the start of the program as well as after 30 days if necessary, then 60 days and at the end of 6 months the subjects underwent a blood test in order to evaluate their levels of pro-inflammatory and anti-inflammatory markers depending on their increase or loss of weight. The markers or molecules indicating the presence of inflammation that were tested for were leucocytes, neutrophils, the reactive protein C (PRC), TNF-α, interleukin 6, leptin, resistin and adiponectin. […]

[1] = system: ultrasensitive reactive protein C (PRCus); assay: Slimming study: blood level of ultrasensitive reactive protein C; conditions: DHA every day during slimming diet (FIG. 3); control group 12%
Method: as §1
At the start of the program as well as after 30 days if necessary, then 60 days and at the end of 6 months the subjects underwent a blood test in order to evaluate their levels of pro-inflammatory and anti-inflammatory markers depending on their increase or loss of weight. The markers or molecules indicating the presence of inflammation that were tested for were leucocytes, neutrophils, the reactive protein C (PRC), TNF-α, interleukin 6, leptin, resistin and adiponectin.
For the first 60 days of the study, the patients in the study group each received 500 mg of DHA per day solely through the consumption of food compositions and portions according to the invention. Their calorie intake was below 800 kcals per day and was presented chiefly in the form of food compositions or portions according to the invention. […]
It can be seen from FIGS. 3 and 4 that there was a diminishing of the pro-inflammatory markers. Two inflammation markers associated with obesity were tested for and their levels were measured: these were ultrasensitive reactive protein C (PRCus) and leptin.

[2] = Slimming study under medical supervision: weight loss and waistline
Method: as §1
For the first 60 days of the study, the patients in the study group each received 500 mg of DHA per day solely through the consumption of food compositions and portions according to the invention. Their calorie intake was below 800 kcals per day and was presented chiefly in the form of food compositions or portions according to the invention. To be more precise, the patients consumed five food portions according to the invention during the day, two of them during the main meals where the portions were accompanied by vegetables in order to ensure their DHA intake especially. […] The goal was to re-educate the patient in terms of food intake. Traditional foods were gradually re-introduced into the patient's daily food intake in order to avoid deficiency and fatigue as well as to re-educate him or her on the food intake level.
The progress of the waistline measurements in the two groups of patients is shown in the graph of FIG. 2. The waistline measurement makes it possible to evaluate loss of abdominal fat, a parameter associated with the metabolic syndrome. […]

## CC/C=C\C/C=C\C/C=C\C/C=C\C/C=C\C/C=C\CCC(=O)O [DHA, docosahexaenoic acid]
PD1
  change of PD1 level as compared with day 0: +83%
[1]
  reduction of PRC rate: approximately 18%
[2]; 6 months (D-180) from D-0, same figure stated for both groups
  average weight loss: about 20 kg
[2]; end of 60 days, same figure stated for each group
  average loss in waistline measurement: about 15 cm

From patent US20160324818A1, “DIET FOOD COMPOSITION INCLUDING DHA TO REDUCE SHORT-TERM AND LONG-TERM LOW-GRADE INFLAMMATION” (PRI S.A., priority 2013, published 2016)
